{"source": "patent US9932617B2", "about": "“Ketose 3-epimerase produced by arthrobacter globiformis” (priority 2013, dated 2018)", "format_in_all_cases": "biochemical, Arthrobacter globiformis M30", "key": {"[1]": {"target": "T1, ketose 3-epimerase (Arthrobacter globiformis, UniProt A0A1L7NQ96)", "T1 sequence (A0A1L7NQ96 whole entry)": "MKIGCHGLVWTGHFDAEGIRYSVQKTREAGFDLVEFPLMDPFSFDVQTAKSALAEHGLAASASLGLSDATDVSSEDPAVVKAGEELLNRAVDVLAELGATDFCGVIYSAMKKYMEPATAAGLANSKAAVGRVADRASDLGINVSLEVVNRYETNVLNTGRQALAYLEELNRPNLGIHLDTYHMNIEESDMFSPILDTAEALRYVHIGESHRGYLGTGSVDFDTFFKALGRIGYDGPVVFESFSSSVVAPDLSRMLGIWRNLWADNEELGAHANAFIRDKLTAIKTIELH", "experiment": "Effects of metal ions on EDTA treated purified enzyme", "conditions": "for Relative activity (%): 1 mM metal ion, D-psicose substrate, EDTA treated enzyme, activity without metal ions taken as 100; for metal ion activation: purified enzyme", "method": "The enzyme was examined for metal ion requirement. The purified enzyme was dialyzed for 2 hours against 10 mM Tris-HCl containing 1 mM EDTA (pH 7.5). The enzyme was further dialyzed against an EDTA-free 10 mM Tris-HCl buffer (pH 7.5) for a whole day and night to obtain an EDTA treated enzyme. This enzyme was used to measure the effect of metal ions on enzyme activity, using 1 mM of various metal ions, and D-psicose as the substrate. The results are presented in Table 13, in which the activity with addition of each type of metal ions is shown as the relative value with respect to the activity of the enzyme without metal ions which is taken as 100."}, "[2]": {"target": "T1, ketose 3-epimerase"}, "[3]": {"target": "T1, ketose 3-epimerase", "experiment": "D-PE substrate specificity, enzyme before purification (crude enzyme)", "conditions": "0.2 M substrate, 55° C., 30 min, Tris buffer pH 7.0, D-psicose epimerization activity taken as 100", "method": "A reaction was allowed under the reaction conditions below. After quenching the reaction by boiling, the reaction liquid was desalted with an ion-exchange resin, and filtered to prepare an HPLC sample. The sample was analyzed by chromatography using CK08EC (Mitsubishi Chemical Corporation) in an HPLC system (Tosoh). Each product sugar was determined by calculations from the peak area values of the chromatogram.\nEight hexose (ketoses) were used to examine the substrate specificity of the present enzyme before purification. An enzyme reaction composition (Table 4) containing each substrate (0.2 M, 350 μl) and an enzyme liquid (350 μl; Tris buffer pH 7.0) was allowed to react at 55° C. for 30 min, and the ketose epimerized and produced from each sugar was analyzed by HPLC. The results are presented as relative activity for each ketose relative to the D-psicose epimerization activity which is taken as 100, as follows. Table 5 presents relative activity values for D-fructose, D-psicose, D-sorbose, D-tagatose, L-fructose, L-psicose, L-sorbose, […] L-tagatose substrates. The activity was the highest for D-psicose, and the second highest for D-fructose. The substrate specificity can be said as characteristic of the D-psicose 3 epimerase (DPE), not other free ketose 3 epimerases, and was clearly different from the specificity of the D-tagatose3-epimerase (DTE) of Pseudomonas cichorii."}, "[4]": {"target": "T1, ketose 3-epimerase", "experiment": "Km and Vmax of the present enzyme", "conditions": "30° C., in the presence of Mg^2+ ions", "method": "The Km and Vmax of the present enzyme for D-psicose and D-fructose were measured. The measurement was made by measuring enzyme activity at 30° C. in the presence of Mg^2+ ions."}, "[5]": {"target": "T1, ketose 3-epimerase", "experiment": "Substrate specificity of purified enzyme for all ketohexoses", "conditions": "400 mM substrate, 20 mM MgCl2, 70° C. (120 min for D-sorbose and L-fructose, 20 min others), D-psicose taken as 100", "method": "The reactivity of the present enzyme was examined with respect to the all ketohexoses. The enzyme activity was tabulated as the relative activity with respect to the activity for D-psicose which is taken as 100. The present enzyme had activity for the all ketohexoses, and the activity was the highest for D-psicose. […] The initial velocity was determined by allowing a reaction at 70° C. for 120 min for D-sorbose and L-fructose, and 70° C. for 20 min for the other substrates."}, "[6]": {"conditions": "crude enzyme dialyzed against EDTA, D-fructose substrate, pH 7.0, 55° C., 30 min"}}, "note": "Like-named read-outs stand apart in the source and are kept apart here. Marks after values point to notes of the source that are not given here.", "data": [{"compound": "[Ca+2]", "note": "[Ca^2+, calcium]", "values": [{"measurement": "Relative activity (%)", "setting": "[1]", "value": 110, "unit": "%"}, {"measurement": "metal ion activation", "setting": "[1]", "value": "activatable"}]}, {"compound": "[Cl-].[Cl-].[Co+2]", "note": "[CoCl2]", "values": [{"measurement": "metal ion activation (effect of metal salt on enzyme activity)", "setting": "[2]; pH 7", "value": "increased"}]}, {"compound": "[Co+2]", "note": "[Co^2+, divalent cobalt ions]", "values": [{"measurement": "Relative activity (%)", "setting": "[1]", "value": 130, "unit": "%"}, {"measurement": "metal ion activation", "setting": "[1]", "value": "activatable"}, {"measurement": "metal ion activation (effect of metal salt on enzyme activity)", "setting": "[2]; [6]", "value": "activatable"}]}, {"compound": "[Cu+2]", "note": "[Cu^2+]", "values": [{"measurement": "Relative activity (%)", "setting": "[1]", "value": 0, "unit": "%"}]}, {"compound": "O=C(CO)[C@@H](O)[C@H](O)[C@H](O)CO", "note": "[D-fructose]", "values": [{"measurement": "Relative activity (%)", "setting": "[3]", "value": 58.14, "unit": "%"}, {"measurement": "Km", "setting": "[4]", "value": 31.5, "unit": "mM"}, {"measurement": "Vmax", "setting": "[4]", "value": 68.5, "unit": "U/mg"}, {"measurement": "Relative activity (%)", "setting": "[5]", "value": 43.8, "unit": "%"}]}, {"compound": "O=C(CO)[C@H](O)[C@H](O)[C@H](O)CO", "note": "[D-psicose]", "values": [{"measurement": "Relative activity (%)", "setting": "[3]", "value": "100* %"}, {"measurement": "Km", "setting": "[4]", "value": 30.1, "unit": "mM"}, {"measurement": "Vmax", "setting": "[4]", "value": 168, "unit": "U/mg"}, {"measurement": "Relative activity (%)", "setting": "[5]", "value": 100, "unit": "%"}]}, {"compound": "O=C(CO)[C@H](O)[C@@H](O)[C@H](O)CO", "note": "[D-sorbose]", "values": [{"measurement": "Relative activity (%)", "setting": "[3]", "value": 1.25, "unit": "%"}, {"measurement": "Relative activity (%)", "setting": "[5]", "value": 1.13, "unit": "%"}]}, {"compound": "O=C(CO)[C@@H](O)[C@@H](O)[C@H](O)CO", "note": "[D-tagatose]", "values": [{"measurement": "Relative activity (%)", "setting": "[3]", "value": 5.42, "unit": "%"}, {"measurement": "Relative activity (%)", "setting": "[5]", "value": 18.3, "unit": "%"}]}, {"compound": "[Fe+2]", "note": "[Fe^2+]", "values": [{"measurement": "Relative activity (%)", "setting": "[1]", "value": 32, "unit": "%"}]}, {"compound": "O=C(CO)[C@H](O)[C@@H](O)[C@@H](O)CO", "note": "[L-fructose]", "values": [{"measurement": "Relative activity (%)", "setting": "[3]", "value": 12, "unit": "%"}, {"measurement": "Relative activity (%)", "setting": "[5]", "value": 0.97, "unit": "%"}]}, {"compound": "O=C(CO)[C@@H](O)[C@@H](O)[C@@H](O)CO", "note": "[L-psicose]", "values": [{"measurement": "Relative activity (%)", "setting": "[3]", "value": 12, "unit": "%"}, {"measurement": "Relative activity (%)", "setting": "[5]", "value": 21.2, "unit": "%"}]}, {"compound": "O=C(CO)[C@@H](O)[C@H](O)[C@@H](O)CO", "note": "[L-sorbose]", "values": [{"measurement": "Relative activity (%)", "setting": "[3]", "value": 8, "unit": "%"}, {"measurement": "Relative activity (%)", "setting": "[5]", "value": 16.6, "unit": "%"}]}, {"compound": "O=C(CO)[C@H](O)[C@H](O)[C@@H](O)CO", "note": "[L-tagatose]", "values": [{"measurement": "Relative activity (%)", "setting": "[3]", "value": 12.5, "unit": "%"}, {"measurement": "Relative activity (%)", "setting": "[5]", "value": 44.0, "unit": "%"}]}, {"compound": "[Mg+2]", "note": "[Mg^2+, magnesium ions]", "values": [{"measurement": "Relative activity (%)", "setting": "[1]", "value": 150, "unit": "%"}, {"measurement": "metal ion activation", "setting": "[1]", "value": "activatable"}]}, {"compound": "[Mn+2]", "note": "[Mn^2+, divalent manganese ions]", "values": [{"measurement": "Relative activity (%)", "setting": "[1]", "value": 137, "unit": "%"}, {"measurement": "metal ion activation", "setting": "[1]", "value": "activatable"}, {"measurement": "metal ion activation (effect of metal salt on enzyme activity)", "setting": "[2]; [6]", "value": "activatable"}]}, {"compound": "[Na+]", "note": "[Na^+]", "values": [{"measurement": "Relative activity (%)", "setting": "[1]", "value": 120, "unit": "%"}]}, {"compound": "[Ni+2]", "note": "[Ni^2+]", "values": [{"measurement": "Relative activity (%)", "setting": "[1]", "value": 87, "unit": "%"}]}, {"compound": "[Zn+2]", "note": "[Zn^2+]", "values": [{"measurement": "Relative activity (%)", "setting": "[1]", "value": 0, "unit": "%"}]}, {"compound": "manganese chloride [MnCl2]", "values": [{"measurement": "metal ion activation (effect of metal salt on enzyme activity)", "setting": "[2]; [6]", "value": "increased"}]}]}
